The values that follow are results of earlier work, collected in patent US20050084931A1, “Human prostaglandin DP receptor variants and methods of using same” (priority 2003, published 2005).

The data set deals with T1, human DP receptor (Homo sapiens, UniProt Q13258).
T1 sequence (Q13258 1-359): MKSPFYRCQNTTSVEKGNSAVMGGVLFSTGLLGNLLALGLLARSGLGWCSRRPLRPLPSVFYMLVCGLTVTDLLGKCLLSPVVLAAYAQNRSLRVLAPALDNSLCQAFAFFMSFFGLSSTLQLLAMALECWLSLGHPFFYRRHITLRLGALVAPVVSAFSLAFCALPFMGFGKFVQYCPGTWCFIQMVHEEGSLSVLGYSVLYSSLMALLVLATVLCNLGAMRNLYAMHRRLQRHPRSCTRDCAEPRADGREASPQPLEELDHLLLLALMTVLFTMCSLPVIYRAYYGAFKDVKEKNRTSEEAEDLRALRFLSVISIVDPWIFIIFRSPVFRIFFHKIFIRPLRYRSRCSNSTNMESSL

Molecules are shown by their SMILES. Read-outs that look alike come from different tables or passages of the source.

In the case of `CCCCC[C@H](O)/C=C/[C@H]1C(=O)C[C@H](O)[C@@H]1C/C=C\CCCC(=O)O` [PGD2, Prostaglandin D2], the Kd by setting is: (high-affinity site, read-out: high-affinity binding site) 0.3 nM; (read-out: lower-affinity site) roughly 13 nM.
